Structures are written as SMILES.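 1) Cells in 96-well plates. 2) Compound, 48 h, 5 concentrations. 3) Linear interpolation between surrounding doses. 4) Unreached endpoint = highest concentration. At the GI50, growth is halved.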 Activity calls are given as the source filed them. Cut-off read from the data, not from the text of the source: active = GI50 up to about 1.1 µM and inactive = higher.

Some test systems named below: NCI-H522; UACC-62; CCRF-CEM; SK-MEL-28; NCI-H460; RPMI-8226; SR; NCI-H226; PC-3; SK-OV-3; U-251; CAKI-1; DU-145; SF-539; OVCAR-5; SNB-75; SW-620; HT-29; Malme-3M; UACC-257.
Holding throughout (experiment): NCI-60 cell line screen, 48 h

Consider `CN(C)CCNc1ccc2c(=O)n(CCN(C)C)c(=O)n3c4ccc(O)cc4c(=O)c1c23`, for which the GI50 in the assay with NCI-H522 was < 0.01 µM (active); in the assay with UACC-62, < 0.0128 µM (active); in the assay with CCRF-CEM, < 0.01 µM (active); in the assay on SK-MEL-28 it was 0.202 µM (active); with NCI-H460 it was < 0.01 µM (active); in the assay on RPMI-8226, < 0.0104 µM (active). Also, the GI50 in the assay with SR was < 0.01 µM (active); in the assay with NCI-H226 it was < 0.01 µM (active); with PC-3, < 0.0491 µM (active); in the assay with SK-OV-3, < 0.022 µM (active); in the assay with U-251, < 0.0109 µM (active); in the assay on CAKI-1, < 0.01 µM (active). Also, the GI50 was < 0.01 µM (active) in the assay with DU-145; < 0.01 µM (active) in the assay with SF-539; 0.0775 µM (active) in the assay with OVCAR-5; 0.029 µM (active) in the assay on SNB-75; < 0.01 µM (active) in the assay on SW-620; < 0.01 µM (active) in the assay on HT-29. For the same compound, the figures for the GI50 in the assay with Malme-3M and in the assay on UACC-257 were 0.0569 µM (active) and 0.149 µM (active), respectively.

As to `COc1cc2c(OC)c(c1)CCCC1=CC(=O)C=C(CCC2)C1=O`, the GI50 is 21 µM (inactive) with NCI-H522; 31.8 µM (inactive) with UACC-62; 3.09 µM (inactive) in the assay on CCRF-CEM; 54.2 µM (inactive) in the assay on SK-MEL-28; 41.9 µM (inactive) in the assay on NCI-H460; 7.6 µM (inactive) with RPMI-8226. Further, the GI50 with SR is 3.54 µM (inactive); in the assay with NCI-H226 it was > 100 µM (inactive); in the assay on PC-3, 28.6 µM (inactive); in the assay with SK-OV-3 it was 56.9 µM (inactive); in the assay with U-251, 40.1 µM (inactive); with CAKI-1 it was > 100 µM (inactive). Besides, the GI50 was > 68.4 µM (inactive) with DU-145; 35.6 µM (inactive) with SF-539; > 100 µM (inactive) in the assay with OVCAR-5; > 60.3 µM (inactive) in the assay on SNB-75; 32.1 µM (inactive) in the assay on SW-620; 44.9 µM (inactive) in the assay with HT-29. Besides, the GI50 in the assay with Malme-3M was 10.4 µM (inactive); with UACC-257, 35 µM (inactive).

With `COc1cc(OCc2ccc3nc(OC)c(OC)nc3c2)cc(OC)c1OC`, the GI50 in the assay on NCI-H522, with UACC-62, with CCRF-CEM, in the assay with SK-MEL-28, with NCI-H460 and with RPMI-8226 was > 10 µM (inactive) in each case. In addition, the GI50 was > 10 µM (inactive) in the assay with SR; > 10 µM (inactive) in the assay on NCI-H226; > 3.08 µM (inactive) in the assay on PC-3; > 10 µM (inactive) in the assay with SK-OV-3; > 10 µM (inactive) in the assay on U-251; > 10 µM (inactive) with CAKI-1. Also, the GI50 in the assay on DU-145, with SF-539, in the assay with OVCAR-5, in the assay with SNB-75, in the assay on SW-620 and in the assay with HT-29 was > 10 µM (inactive) throughout. For the same compound, the GI50 in the assay with Malme-3M and in the assay with UACC-257 was > 10 µM (inactive) in each case.

Take `CNC1C(O)CC(OC2C/C=C(\C)C/C(C)=C/C=C/CCC(C)CNC(=O)/C=C/C=C/C2C)OC1C` (stereo not given): the GI50 in the assay on NCI-H522 was 0.973 µM (active); in the assay with UACC-62 it was 0.44 µM (active); in the assay on CCRF-CEM it was 0.153 µM (active); in the assay on SK-MEL-28 it was 0.667 µM (active); with NCI-H460, 0.173 µM (active); in the assay with RPMI-8226, 0.22 µM (active). Moreover, the GI50 in the assay with SR is 0.24 µM (active); in the assay with NCI-H226, 2.77 µM (inactive); in the assay with PC-3 it was 1.06 µM (active); with SK-OV-3 it was 1.15 µM (inactive); in the assay with U-251, 0.521 µM (active); in the assay on CAKI-1 it was 0.877 µM (active). For the same compound, the GI50 is 0.719 µM (active) with DU-145; 0.918 µM (active) in the assay on SF-539; 1.18 µM (inactive) in the assay with OVCAR-5; 0.711 µM (active) with SNB-75; 0.12 µM (active) with SW-620; 0.224 µM (active) in the assay on HT-29. For the same compound, the GI50 in the assay on Malme-3M is 1.47 µM (inactive); in the assay with UACC-257, 0.667 µM (active).

`CCOC(=O)NC(Nc1cccc(F)c1)(C(F)(F)F)C(F)(F)F`: the GI50 with NCI-H522 was > 100 µM (inactive); in the assay on UACC-62 it was 86.5 µM (inactive); in the assay on CCRF-CEM it was > 100 µM (inactive); with SK-MEL-28, > 100 µM (inactive); in the assay with NCI-H460 it was > 100 µM (inactive); in the assay with RPMI-8226, > 100 µM (inactive). Also, the GI50 in the assay on SR is 7 µM (inactive); with NCI-H226 it was > 100 µM (inactive); in the assay on PC-3 it was > 100 µM (inactive); in the assay with SK-OV-3, > 100 µM (inactive); with U-251, > 100 µM (inactive); in the assay with CAKI-1, > 100 µM (inactive). Also, the GI50 in the assay on DU-145, in the assay on SF-539, in the assay with OVCAR-5, with SNB-75, with SW-620 and in the assay with HT-29 was > 100 µM (inactive) in each case. The GI50 in the assay with Malme-3M and in the assay on UACC-257 was > 100 µM (inactive) throughout.

For the compound `COc1ccc(NC(=O)CC(=O)n2nc(C)c(/N=N/c3cccc(C)c3)c2C)cc1`, the GI50 with NCI-H522 is > 100 µM (inactive); in the assay with UACC-62 it was > 100 µM (inactive); with CCRF-CEM, > 100 µM (inactive); in the assay with SK-MEL-28, > 100 µM (inactive); with NCI-H460 it was > 100 µM (inactive); in the assay on RPMI-8226 it was 91.8 µM (inactive). For the same compound, the GI50 in the assay on SR is 91.6 µM (inactive); with NCI-H226, > 100 µM (inactive); in the assay on PC-3, > 100 µM (inactive); in the assay on SK-OV-3 it was 18.6 µM (inactive); in the assay on U-251, 54.1 µM (inactive); in the assay with CAKI-1 it was > 100 µM (inactive). In addition, the GI50 with DU-145 is > 100 µM (inactive); with SF-539, > 100 µM (inactive); with OVCAR-5, > 100 µM (inactive); with SNB-75, 40.8 µM (inactive); in the assay with SW-620, > 100 µM (inactive); in the assay on HT-29, > 100 µM (inactive). Further, the GI50 in the assay on Malme-3M was > 100 µM (inactive); with UACC-257, > 10 µM (inactive).

On to `N#CCCN(CCC#N)c1ccc(/C=C2\SC(=S)NC2=O)cc1Br`, for which the GI50 was 76 µM (inactive) with NCI-H522; > 100 µM (inactive) with UACC-62; > 100 µM (inactive) in the assay with CCRF-CEM; > 100 µM (inactive) in the assay with SK-MEL-28; > 100 µM (inactive) in the assay on NCI-H460; > 100 µM (inactive) with RPMI-8226. In addition, the GI50 is > 100 µM (inactive) in the assay on SR; > 100 µM (inactive) with NCI-H226; > 100 µM (inactive) in the assay with PC-3; 28.6 µM (inactive) in the assay with SK-OV-3; 17.3 µM (inactive) with U-251; > 100 µM (inactive) in the assay with CAKI-1. The GI50 with DU-145 is > 100 µM (inactive); in the assay on SF-539 it was > 100 µM (inactive); in the assay with OVCAR-5, > 100 µM (inactive); in the assay with SNB-75 it was 17.8 µM (inactive); in the assay with SW-620, > 100 µM (inactive); in the assay with HT-29, > 100 µM (inactive). Also, the GI50 in the assay with Malme-3M was 16.9 µM (inactive); in the assay on UACC-257, > 100 µM (inactive).

With `COC(=O)C1([C@@H]2C[C@@H](O)[C@]3(C)CC/C=C(\C)CCC[C@H](C)[C@H](O)[C@@H]2O3)CC1`, the GI50 is 38.5 µM (inactive) in the assay with NCI-H522; 66.8 µM (inactive) with UACC-62; > 100 µM (inactive) with CCRF-CEM; > 100 µM (inactive) in the assay with SK-MEL-28; 32.7 µM (inactive) with NCI-H460; 50.7 µM (inactive) in the assay with RPMI-8226. In addition, the GI50 in the assay with SR was 39.4 µM (inactive); in the assay with NCI-H226, 27.2 µM (inactive); with PC-3, 31.8 µM (inactive); with SK-OV-3 it was > 100 µM (inactive); in the assay with U-251, 71.9 µM (inactive); in the assay with CAKI-1 it was > 100 µM (inactive). Also, the GI50 in the assay with DU-145 is 66.8 µM (inactive); with SF-539, 91 µM (inactive); in the assay on OVCAR-5, 80.5 µM (inactive); in the assay with SNB-75, 0.286 µM (active); with SW-620 it was 95.9 µM (inactive); in the assay with HT-29, 42.5 µM (inactive). For the same compound, the GI50 in the assay with Malme-3M was > 100 µM (inactive); in the assay with UACC-257, 56.1 µM (inactive).

As to `O=[N+]([O-])c1ccc(N/N=C/c2ccc(OCCCCCCCCCCCO)cc2)c([N+](=O)[O-])c1`, the GI50 was 2.35 µM (inactive) with NCI-H522; 2.32 µM (inactive) in the assay with UACC-62; 3.91 µM (inactive) in the assay on CCRF-CEM; 4 µM (inactive) with SK-MEL-28; 2.5 µM (inactive) in the assay on NCI-H460; 30.9 µM (inactive) in the assay with RPMI-8226. Besides, the GI50 in the assay on SR was 2.5 µM (inactive); in the assay on NCI-H226, 6.37 µM (inactive); in the assay with PC-3, 2.45 µM (inactive); in the assay on SK-OV-3, 4.24 µM (inactive); in the assay with U-251, 2.37 µM (inactive); in the assay with CAKI-1, 3.34 µM (inactive). For the same compound, the GI50 was 19.7 µM (inactive) with DU-145; 1.97 µM (inactive) in the assay with SF-539; 14.8 µM (inactive) in the assay on OVCAR-5; 1.94 µM (inactive) with SNB-75; 4.84 µM (inactive) in the assay with SW-620; 1.48 µM (inactive) with HT-29. The GI50 with Malme-3M is 1.72 µM (inactive); with UACC-257, 4.91 µM (inactive).

In the case of `COc1cccc2c1C(=O)c1c(O)c3c(c(O)c1C2=O)C[C@@](O)(C(C)=O)CC3OC1CC(OC2CC(N)C(O)C(C)O2)C(O)C(C)O1` (stereo not given in full), the GI50 was 45.4 µM (inactive) in the assay on NCI-H522; 66.1 µM (inactive) in the assay on UACC-62; 10.5 µM (inactive) in the assay on CCRF-CEM; > 72.4 µM (inactive) with SK-MEL-28; 14.6 µM (inactive) in the assay on NCI-H460; 18.2 µM (inactive) in the assay with RPMI-8226. The GI50 in the assay with SR is > 24.4 µM (inactive); in the assay on NCI-H226, 51.1 µM (inactive); with PC-3, 48.6 µM (inactive); in the assay with SK-OV-3 it was 51.9 µM (inactive); in the assay with U-251 it was 23.9 µM (inactive); in the assay on CAKI-1, > 100 µM (inactive). In addition, the GI50 was 49.1 µM (inactive) with DU-145; 25.1 µM (inactive) with SF-539; > 61.2 µM (inactive) with OVCAR-5; 22.1 µM (inactive) in the assay on SNB-75; 32.7 µM (inactive) in the assay on SW-620; 39.5 µM (inactive) with HT-29. The figures for the GI50 with Malme-3M and in the assay on UACC-257 were 38.1 µM (inactive) and > 67.5 µM (inactive), respectively.

For the origin of these results see ChEMBL document CHEMBL1201862, “PubChem BioAssay data set” (2004).
